Results published in US10106538B2, “Inhibitors of protein kinases” (PRINCETON DRUG DISCOVERY INC, priority 2015, dated 2018).

Key:
[1] = target: T1, MAP2K2 (Homo sapiens, UniProt P36507); assay: Off-chip Mobility Shift Assay (MSA) kinase inhibition; assay type: biochemical; settings: for inhibition at 0.1 µM: inhibitor concentration 0.1 μM
T1 construct: purchased Carna Biosciences
Method: (§1) Off-chip Mobility Shift Assay (MSA) by Cama Biosciences, Inc (Natick, Mass.) a used for measuring the kinase activity and inhibition. • 1) The 5 μL of x4 compound solution, 5 μL of x4 Substrate/ATP/Metal solution, and 10 μL of x2 kinase solution were prepared with assay buffer (20 mM HEPES, 0.01% Triton X100, 2 mM DTT, pH 7.5) and mixed and incubated in a well of polypropylene 384 well microplate for 1 or 5 hour(s)* at room temperature.

[2] = target: T2, BRK (Homo sapiens, UniProt Q13882); assay: as above; assay type: biochemical; settings: for inhibition at 0.1 µM: inhibitor concentration 0.1 μM
T2 construct: purchased Carna Biosciences
Method: as §1

[3] = target: T3, LCK (Homo sapiens, UniProt P06239); assay: as above; assay type: biochemical; settings: for inhibition at 0.1 µM: inhibitor concentration 0.1 μM
T3 construct: purchased Carna Biosciences
Method: as §1

[4] = target: T4, AurA (Homo sapiens, UniProt O14965); assay: as above; assay type: biochemical; settings: for inhibition at 0.1 µM: inhibitor concentration 0.1 μM
T4 construct: purchased Carna Biosciences
T4 sequence (O14965 1-403): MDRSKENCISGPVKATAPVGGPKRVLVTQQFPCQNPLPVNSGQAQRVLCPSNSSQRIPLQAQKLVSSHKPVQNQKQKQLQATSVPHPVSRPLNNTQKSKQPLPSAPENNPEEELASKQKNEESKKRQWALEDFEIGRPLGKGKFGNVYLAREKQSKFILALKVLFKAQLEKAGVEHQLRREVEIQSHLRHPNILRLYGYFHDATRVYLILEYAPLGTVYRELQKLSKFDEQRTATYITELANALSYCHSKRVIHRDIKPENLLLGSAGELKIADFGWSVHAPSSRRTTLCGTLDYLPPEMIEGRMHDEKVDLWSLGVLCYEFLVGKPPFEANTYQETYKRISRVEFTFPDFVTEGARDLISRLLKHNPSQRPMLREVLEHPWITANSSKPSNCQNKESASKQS
Method: as §1

[5] = target: T5, Erk1 (Homo sapiens, UniProt P27361); assay: as above; assay type: biochemical; settings: for inhibition at 0.1 µM: inhibitor concentration 0.1 μM
T5 construct: purchased Carna Biosciences
Method: as §1

[6] = target: T6, ABL (Homo sapiens, UniProt P00519); assay: as above; assay type: biochemical; settings: for inhibition at 0.1 µM: inhibitor concentration 0.1 μM
T6 construct: purchased Carna Biosciences
Method: as §1

[7] = target: T7, Erk2 (Homo sapiens, UniProt P28482); assay: as above; assay type: biochemical; settings: for inhibition at 0.1 µM: inhibitor concentration 0.1 μM
T7 construct: purchased Carna Biosciences
Method: as §1

[8] = target: T8, Erk5 (Homo sapiens, UniProt Q13164); assay: as above; assay type: biochemical; settings: for inhibition at 0.1 µM: inhibitor concentration 0.1 μM
T8 construct: purchased Carna Biosciences
Method: as §1

[9] = target: T9, PDGFRβ (Homo sapiens, UniProt P09619); assay: as above; assay type: biochemical; settings: for inhibition at 0.1 µM: inhibitor concentration 0.1 μM
T9 construct: purchased Carna Biosciences
Method: as §1

[10] = target: T10, MNK1 (Homo sapiens, UniProt Q9BUB5); assay: as above; assay type: biochemical; settings: for inhibition at 0.1 µM: inhibitor concentration 0.1 μM
T10 construct: purchased Carna Biosciences
Method: as §1

[11] = target: T11, KDR (Homo sapiens, UniProt P35968); assay: as above; assay type: biochemical; settings: for inhibition at 0.1 µM: inhibitor concentration 0.1 μM
T11 construct: purchased Carna Biosciences
Method: as §1

[12] = target: T12, BRAF (Homo sapiens, UniProt P15056); assay: as above; assay type: biochemical
T12 construct: purchased Carna Biosciences
Method: as §1

[13] = target: T13, SRM (Homo sapiens, UniProt Q9H3Y6); assay: as above; assay type: biochemical; settings: for inhibition at 0.1 µM: inhibitor concentration 0.1 μM
T13 construct: purchased Carna Biosciences
Method: as §1

[14] = target: T14, PDGFRα (Homo sapiens, UniProt P16234); assay: as above; assay type: biochemical; settings: for inhibition at 0.1 µM: inhibitor concentration 0.1 μM
T14 construct: purchased Carna Biosciences
Method: as §1

[15] = target: T15, PIK3CA/PIK3R1 (Homo sapiens, UniProt P42336); assay: as above; assay type: biochemical; settings: for inhibition at 0.1 µM: inhibitor concentration 0.1 μM
T15 construct: purchased Carna Biosciences
Method: as §1

[16] = target: T16, MNK2 (Homo sapiens, UniProt Q9HBH9); assay: as above; assay type: biochemical; settings: for inhibition at 0.1 µM: inhibitor concentration 0.1 μM
T16 construct: purchased Carna Biosciences
Method: as §1

[17] = test system: breast cancer cell line T-47D; assay: Cell growth assay with breast cancer cell line T-47D; assay type: cell-based; settings: Homo sapiens, T47D, 72 h, T-47D cells, PrestoBlue Cell Viability reagent, read-out: IC50 inhibition of cell growth
Method: […] of the complete medium was then gently dispersed over the surface of the cell layer for several times. The cell concentration was adjusted to 1×10^4 cells/mL with the complete medium. A 100 μL aliquot of the cell suspension was added to the well of a 96-well plate, and the plate was incubated overnight at 37° C. under 5% CO2 with saturated humidity. On the next day, the medium in each well was aspirated and replaced with a 100 μL aliquot of pre-warmed complete medium at 37° C. in the presence or absence of the test compounds at various concentrations from 0-100 μM. The test compounds were dissolved in DMSO, and the final DMSO concentration in the cell culture was no more than 1%. The plate was incubated for 72 hours at 37° C. under 5% CO2 with saturated humidity. At end of the cell culture a 10 μL aliquot of PrestoBlue® Cell Viability reagent (ThermoFisher Scientific) was added into the well and the plate was incubated at 37° C. for 30 min. The absorption at 570 and 600 nm were measured with a SpectraMax Microplate reader (Molecular Devices), The absorbance at […] was normalized to that at 600 nm.

[18] = target: T17, JNK2 (Homo sapiens, UniProt P45984); assay: Off-chip Mobility Shift Assay (MSA) kinase inhibition; assay type: biochemical; settings: inhibitor concentration 0.1 μM
T17 construct: purchased Carna Biosciences
Method: as §1

[19] = target: T18, ABL(T315I) (Homo sapiens, UniProt P00519, T315I); assay: as above; assay type: biochemical; settings: inhibitor concentration 0.1 μM
T18 construct: purchased Carna Biosciences
Method: as §1

[20] = target: T19, PIM3 (Homo sapiens, UniProt Q86V86); assay: as above; assay type: biochemical; settings: inhibitor concentration 0.1 μM
T19 construct: purchased Carna Biosciences
Method: as §1

[21] = target: T20, JNK3 (Homo sapiens, UniProt P53779); assay: as above; assay type: biochemical; settings: inhibitor concentration 0.1 μM
T20 construct: purchased Carna Biosciences, Inc
Method: as §1

[22] = target: T21, JNK1 (Homo sapiens, UniProt P45983); assay: as above; assay type: biochemical; settings: inhibitor concentration 0.1 μM
T21 construct: purchased Carna Biosciences
Method: as §1

[23] = inhibitor concentration 0.01 μM
[24] = inhibitor concentration 0.01 μM, 0.01 µM

T15 sequence (P42336 whole entry): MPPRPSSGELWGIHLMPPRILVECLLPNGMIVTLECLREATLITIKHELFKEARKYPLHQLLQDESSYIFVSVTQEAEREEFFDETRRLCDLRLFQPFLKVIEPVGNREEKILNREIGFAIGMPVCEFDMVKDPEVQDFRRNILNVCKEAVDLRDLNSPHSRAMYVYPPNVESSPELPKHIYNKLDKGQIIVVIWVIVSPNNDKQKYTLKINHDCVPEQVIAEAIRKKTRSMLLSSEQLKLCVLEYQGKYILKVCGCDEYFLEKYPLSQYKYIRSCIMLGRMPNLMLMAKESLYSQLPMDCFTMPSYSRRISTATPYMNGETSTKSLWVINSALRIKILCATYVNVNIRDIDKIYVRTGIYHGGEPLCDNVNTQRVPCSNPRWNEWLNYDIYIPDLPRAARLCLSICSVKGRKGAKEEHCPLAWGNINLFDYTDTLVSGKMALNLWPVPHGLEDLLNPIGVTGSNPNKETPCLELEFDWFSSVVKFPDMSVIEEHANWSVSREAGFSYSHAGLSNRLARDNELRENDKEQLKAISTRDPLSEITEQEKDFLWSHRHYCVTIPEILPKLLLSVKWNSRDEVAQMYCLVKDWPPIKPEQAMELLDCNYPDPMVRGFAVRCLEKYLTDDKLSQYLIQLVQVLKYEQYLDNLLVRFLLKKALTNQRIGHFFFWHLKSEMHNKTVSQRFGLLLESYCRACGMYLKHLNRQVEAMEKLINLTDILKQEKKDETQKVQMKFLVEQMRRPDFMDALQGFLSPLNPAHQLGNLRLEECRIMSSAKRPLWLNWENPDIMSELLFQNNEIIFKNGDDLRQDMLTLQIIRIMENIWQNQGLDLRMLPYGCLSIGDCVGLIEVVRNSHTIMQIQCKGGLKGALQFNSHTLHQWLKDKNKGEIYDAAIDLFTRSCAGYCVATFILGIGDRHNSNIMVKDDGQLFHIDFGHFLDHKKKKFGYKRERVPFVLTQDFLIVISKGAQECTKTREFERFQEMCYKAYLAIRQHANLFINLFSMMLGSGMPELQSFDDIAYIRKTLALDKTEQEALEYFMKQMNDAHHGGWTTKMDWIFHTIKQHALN
T15 sequence (P27986 whole entry partner): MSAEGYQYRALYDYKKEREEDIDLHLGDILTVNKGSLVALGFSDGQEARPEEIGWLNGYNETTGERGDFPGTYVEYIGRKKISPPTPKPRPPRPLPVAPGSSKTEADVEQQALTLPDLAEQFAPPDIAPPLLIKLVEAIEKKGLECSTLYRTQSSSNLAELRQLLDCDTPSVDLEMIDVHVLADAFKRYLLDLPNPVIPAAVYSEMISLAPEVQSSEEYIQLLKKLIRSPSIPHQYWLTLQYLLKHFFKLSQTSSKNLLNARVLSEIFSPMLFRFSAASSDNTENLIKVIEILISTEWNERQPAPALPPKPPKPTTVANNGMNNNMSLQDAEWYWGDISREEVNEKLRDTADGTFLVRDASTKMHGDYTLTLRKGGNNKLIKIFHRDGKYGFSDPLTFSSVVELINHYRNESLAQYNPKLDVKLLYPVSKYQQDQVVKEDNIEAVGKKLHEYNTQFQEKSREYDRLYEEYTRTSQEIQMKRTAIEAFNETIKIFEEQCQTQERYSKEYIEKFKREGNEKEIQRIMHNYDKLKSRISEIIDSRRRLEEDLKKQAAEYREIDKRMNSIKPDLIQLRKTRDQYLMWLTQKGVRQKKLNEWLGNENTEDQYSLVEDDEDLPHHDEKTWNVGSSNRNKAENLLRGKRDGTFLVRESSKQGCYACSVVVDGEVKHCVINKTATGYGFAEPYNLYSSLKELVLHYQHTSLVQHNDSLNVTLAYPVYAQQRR
T11 sequence (P35968 20-1356): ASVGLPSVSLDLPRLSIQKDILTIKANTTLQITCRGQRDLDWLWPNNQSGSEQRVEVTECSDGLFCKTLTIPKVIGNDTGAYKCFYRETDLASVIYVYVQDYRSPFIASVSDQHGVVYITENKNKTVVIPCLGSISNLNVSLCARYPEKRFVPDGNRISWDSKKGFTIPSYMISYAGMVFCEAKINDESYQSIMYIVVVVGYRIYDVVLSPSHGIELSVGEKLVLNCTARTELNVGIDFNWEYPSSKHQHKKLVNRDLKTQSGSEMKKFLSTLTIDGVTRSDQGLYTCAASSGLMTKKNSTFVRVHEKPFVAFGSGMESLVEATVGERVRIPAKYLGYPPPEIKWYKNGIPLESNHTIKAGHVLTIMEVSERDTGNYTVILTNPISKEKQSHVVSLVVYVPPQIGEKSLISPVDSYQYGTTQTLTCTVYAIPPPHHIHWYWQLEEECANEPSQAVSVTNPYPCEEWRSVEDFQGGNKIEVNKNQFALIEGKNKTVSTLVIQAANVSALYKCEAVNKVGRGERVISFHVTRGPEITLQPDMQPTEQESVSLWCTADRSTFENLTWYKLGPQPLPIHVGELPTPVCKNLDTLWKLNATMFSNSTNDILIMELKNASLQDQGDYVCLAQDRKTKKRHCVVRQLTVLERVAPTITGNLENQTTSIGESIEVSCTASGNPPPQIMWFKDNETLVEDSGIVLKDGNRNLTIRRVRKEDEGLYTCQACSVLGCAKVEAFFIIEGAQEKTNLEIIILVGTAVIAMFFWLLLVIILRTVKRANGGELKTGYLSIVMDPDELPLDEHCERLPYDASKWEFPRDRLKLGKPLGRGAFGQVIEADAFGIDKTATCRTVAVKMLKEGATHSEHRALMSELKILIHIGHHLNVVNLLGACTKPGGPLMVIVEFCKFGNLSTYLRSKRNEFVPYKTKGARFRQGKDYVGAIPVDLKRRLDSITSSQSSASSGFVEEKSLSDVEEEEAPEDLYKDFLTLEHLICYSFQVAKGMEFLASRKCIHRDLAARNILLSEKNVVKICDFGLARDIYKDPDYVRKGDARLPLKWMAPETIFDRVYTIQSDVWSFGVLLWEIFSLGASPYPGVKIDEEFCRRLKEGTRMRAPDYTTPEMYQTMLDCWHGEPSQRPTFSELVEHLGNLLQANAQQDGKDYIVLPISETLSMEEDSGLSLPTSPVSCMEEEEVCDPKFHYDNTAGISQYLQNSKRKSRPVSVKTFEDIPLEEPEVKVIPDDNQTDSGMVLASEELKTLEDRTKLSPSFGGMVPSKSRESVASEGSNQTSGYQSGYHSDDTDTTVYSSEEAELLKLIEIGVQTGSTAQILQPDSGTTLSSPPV
T1 sequence (P36507 whole entry): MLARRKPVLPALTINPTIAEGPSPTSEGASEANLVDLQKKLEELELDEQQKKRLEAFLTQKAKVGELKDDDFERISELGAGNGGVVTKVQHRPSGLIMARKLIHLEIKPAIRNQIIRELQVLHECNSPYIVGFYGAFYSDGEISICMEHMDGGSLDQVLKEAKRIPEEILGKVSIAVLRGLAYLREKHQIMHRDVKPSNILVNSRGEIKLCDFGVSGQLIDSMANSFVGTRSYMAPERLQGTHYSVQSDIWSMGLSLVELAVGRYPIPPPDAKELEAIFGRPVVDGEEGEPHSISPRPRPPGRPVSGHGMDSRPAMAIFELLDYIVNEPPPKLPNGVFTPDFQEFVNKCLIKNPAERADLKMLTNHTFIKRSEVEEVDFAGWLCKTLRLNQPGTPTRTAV
T3 sequence (P06239 whole entry): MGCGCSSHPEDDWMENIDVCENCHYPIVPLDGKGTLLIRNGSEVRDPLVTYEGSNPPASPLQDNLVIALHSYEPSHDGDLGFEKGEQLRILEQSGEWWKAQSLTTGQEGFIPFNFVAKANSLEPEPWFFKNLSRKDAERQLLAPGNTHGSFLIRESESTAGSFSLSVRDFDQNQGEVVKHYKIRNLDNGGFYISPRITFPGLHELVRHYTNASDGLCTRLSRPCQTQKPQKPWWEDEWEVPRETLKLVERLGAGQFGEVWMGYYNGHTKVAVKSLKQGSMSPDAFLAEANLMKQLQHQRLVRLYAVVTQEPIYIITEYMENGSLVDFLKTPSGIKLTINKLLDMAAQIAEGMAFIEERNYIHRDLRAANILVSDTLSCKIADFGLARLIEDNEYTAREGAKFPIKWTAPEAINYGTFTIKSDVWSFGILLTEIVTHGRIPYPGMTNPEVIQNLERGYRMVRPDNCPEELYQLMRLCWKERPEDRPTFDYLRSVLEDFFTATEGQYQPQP
T14 sequence (P16234 24-1089): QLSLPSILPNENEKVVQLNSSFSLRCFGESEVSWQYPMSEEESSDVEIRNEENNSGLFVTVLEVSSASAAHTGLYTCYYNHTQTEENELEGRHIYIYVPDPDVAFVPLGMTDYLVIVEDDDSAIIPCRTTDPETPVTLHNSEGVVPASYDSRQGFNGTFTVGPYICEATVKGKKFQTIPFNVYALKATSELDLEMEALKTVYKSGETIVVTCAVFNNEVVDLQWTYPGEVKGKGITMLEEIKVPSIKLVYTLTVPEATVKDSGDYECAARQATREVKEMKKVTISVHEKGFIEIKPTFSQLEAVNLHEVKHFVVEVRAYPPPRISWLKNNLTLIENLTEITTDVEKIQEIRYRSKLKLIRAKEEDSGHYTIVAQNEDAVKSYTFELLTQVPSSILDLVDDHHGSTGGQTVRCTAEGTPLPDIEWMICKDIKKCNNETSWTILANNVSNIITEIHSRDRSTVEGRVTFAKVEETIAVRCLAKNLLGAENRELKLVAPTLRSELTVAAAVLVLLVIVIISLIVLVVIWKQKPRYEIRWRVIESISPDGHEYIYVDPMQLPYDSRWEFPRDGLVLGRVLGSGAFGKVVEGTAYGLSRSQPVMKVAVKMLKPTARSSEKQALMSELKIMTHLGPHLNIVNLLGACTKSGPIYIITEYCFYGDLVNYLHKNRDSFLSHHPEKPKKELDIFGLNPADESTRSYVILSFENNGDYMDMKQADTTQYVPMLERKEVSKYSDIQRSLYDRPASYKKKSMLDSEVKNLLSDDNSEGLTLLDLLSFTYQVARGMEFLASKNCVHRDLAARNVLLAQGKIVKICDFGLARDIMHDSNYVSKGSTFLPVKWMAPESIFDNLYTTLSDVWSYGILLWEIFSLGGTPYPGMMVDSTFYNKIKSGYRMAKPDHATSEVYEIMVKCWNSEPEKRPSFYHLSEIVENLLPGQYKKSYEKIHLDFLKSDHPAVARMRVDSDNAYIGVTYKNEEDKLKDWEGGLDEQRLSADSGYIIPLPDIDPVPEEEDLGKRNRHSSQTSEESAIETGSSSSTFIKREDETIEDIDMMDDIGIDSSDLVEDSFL

## O=C(c1c(F)ccc(NS(=O)(=O)CCCO)c1F)c1c[nH]c2ncc(-c3ccc(Cl)cc3)cc12 [200-17, N-[3-[5-(4-chlorophenyl)-1H-pyrrolo[2,3-b]pyridine-3-carbonyl]-2,4-difluorophenyl]-3-hydroxypropane-1-sulfonamide]
[1]; inhibitor concentration 1 μM
  inhibition at 1 µM: < 50%
[2]; [23]
  inhibition at 0.01 µM: > 30%
[2]
  inhibition at 0.1 µM: > 50%
[2]; inhibitor concentration 1 μM
  inhibition at 1 µM: > 50%
[3]; [23]
  inhibition at 0.01 µM: > 30%
[3]
  inhibition at 0.1 µM: > 50%
[3]; inhibitor concentration 1 μM
  inhibition at 1 µM: > 50%
[4]; inhibitor concentration 1 μM
  inhibition at 1 µM: > 50%
[5]; inhibitor concentration 1 μM
  inhibition at 1 µM: < 50%
[6]; inhibitor concentration 1 μM
  inhibition at 1 µM: < 50%
[7]; inhibitor concentration 1 μM
  inhibition at 1 µM: < 50%
[8]; inhibitor concentration 1 μM
  inhibition at 1 µM: > 50%
[9]; [23]
  inhibition at 0.01 µM: < 30%
[9]
  inhibition at 0.1 µM: < 50%
[9]; inhibitor concentration 1 μM
  inhibition at 1 µM: > 50%
[10]; inhibitor concentration 1 μM
  inhibition at 1 µM: > 50%
[11]; [23]
  inhibition at 0.01 µM: < 30%
[11]
  inhibition at 0.1 µM: > 50%
[11]; inhibitor concentration 1 μM
  inhibition at 1 µM: > 50%
[12]; inhibitor concentration 1 μM
  inhibition at 1 µM: < 50%
[13]; [23]
  inhibition at 0.01 µM: > 30%
[13]
  inhibition at 0.1 µM: > 50%
[13]; inhibitor concentration 1 μM
  inhibition at 1 µM: > 50%
[14]; [23]
  inhibition at 0.01 µM: < 30%
[14]
  inhibition at 0.1 µM: > 50%
[14]; inhibitor concentration 1 μM
  inhibition at 1 µM: > 50%
[15]; inhibitor concentration 1 μM
  inhibition at 1 µM: > 50%
[16]; inhibitor concentration 1 μM
  inhibition at 1 µM: > 50%
[17]
  IC50: < 20 µM

## CC(=O)CS(=O)(=O)Nc1ccc(F)c(C(=O)c2c[nH]c3ncc(-c4ccc(Cl)cc4)cc23)c1F [200-117]
[18]
  inhibition at 0.1 µM: < 30%
[1]
  inhibition at 0.1 µM: < 30%
[2]
  inhibition at 0.1 µM: > 30%
[3]
  inhibition at 0.1 µM: > 30%
[4]
  inhibition at 0.1 µM: < 30%
[5]
  inhibition at 0.1 µM: < 30%
[19]
  inhibition at 0.1 µM: < 30%
[6]
  inhibition at 0.1 µM: < 30%
[7]
  inhibition at 0.1 µM: < 30%
[8]
  inhibition at 0.1 µM: < 30%
[9]
  inhibition at 0.1 µM: < 30%
[20]
  inhibition at 0.1 µM: < 30%
[10]
  inhibition at 0.1 µM: < 30%
[11]
  inhibition at 0.1 µM: < 30%
[13]
  inhibition at 0.1 µM: > 30%
[21]
  inhibition at 0.1 µM: < 30%
[22]
  inhibition at 0.1 µM: < 30%
[14]
  inhibition at 0.1 µM: > 30%
[15]
  inhibition at 0.1 µM: < 30%
[16]
  inhibition at 0.1 µM: > 30%

## CC(O)CS(=O)(=O)Nc1ccc(F)c(C(=O)c2c[nH]c3ncc(-c4ccc(Cl)cc4)cc23)c1F (centres unmarked) [200-115]
[18]
  inhibition at 0.1 µM: < 30%
[1]
  inhibition at 0.1 µM: < 30%
[2]
  inhibition at 0.1 µM: > 30%
[3]
  inhibition at 0.1 µM: > 30%
[4]
  inhibition at 0.1 µM: < 30%
[5]
  inhibition at 0.1 µM: < 30%
[19]
  inhibition at 0.1 µM: < 30%
[6]
  inhibition at 0.1 µM: < 30%
[7]
  inhibition at 0.1 µM: < 30%
[8]
  inhibition at 0.1 µM: < 30%
[9]
  inhibition at 0.1 µM: < 30%
[20]
  inhibition at 0.1 µM: < 30%
[10]
  inhibition at 0.1 µM: < 30%
[11]
  inhibition at 0.1 µM: < 30%
[13]
  inhibition at 0.1 µM: > 30%
[21]
  inhibition at 0.1 µM: < 30%
[22]
  inhibition at 0.1 µM: < 30%
[14]
  inhibition at 0.1 µM: > 30%
[15]
  inhibition at 0.1 µM: < 30%
[16]
  inhibition at 0.1 µM: < 30%

## O=C(c1c(F)ccc(NS(=O)(=O)CC(O)CO)c1F)c1c[nH]c2ncc(-c3ccc(Cl)cc3)cc12 (stereo not drawn) [200-73, N-[3-[5-(4-chlorophenyl)-lH-pyrrolo [2,3-b]pyridine-3-carbonyl]-2,4-difluorophenyl]-2,3-dihydroxypropane-l-sulfonamide]
[18]
  inhibition at 0.1 µM: < 30%
[1]
  inhibition at 0.1 µM: < 30%
[2]
  inhibition at 0.1 µM: > 30%
[3]
  inhibition at 0.1 µM: < 30%
[4]
  inhibition at 0.1 µM: < 30%
[5]
  inhibition at 0.1 µM: < 30%
[19]
  inhibition at 0.1 µM: < 30%
[6]
  inhibition at 0.1 µM: < 30%
[7]
  inhibition at 0.1 µM: < 30%
[8]
  inhibition at 0.1 µM: < 30%
[9]
  inhibition at 0.1 µM: < 30%
[20]
  inhibition at 0.1 µM: < 30%
[10]
  inhibition at 0.1 µM: < 30%
[11]
  inhibition at 0.1 µM: < 30%
[12]; inhibitor concentration 0.1 μM
  inhibition at 0.1 µM: < 30%
[13]
  inhibition at 0.1 µM: > 30%
[21]
  inhibition at 0.1 µM: < 30%
[22]
  inhibition at 0.1 µM: < 30%
[14]
  inhibition at 0.1 µM: < 30%
[15]
  inhibition at 0.1 µM: < 30%
[16]
  inhibition at 0.1 µM: < 30%
[17]
  IC50: < 20 µM

## C/C=C/S(=O)(=O)Nc1ccc(F)c(C(=O)c2c[nH]c3ncc(-c4ccc(Cl)cc4)cc23)c1F [200-93b]
[2]; [24]
  BRK inhibition: >20%
[3]; [24]
  LCK inhibition: >20%
[9]; [24]
  PDGFRβ inhibition: <20%
[12]; [24]
  BRAF inhibition: <20%
[13]; [24]
  SRM inhibition: >20%
[14]; [23]
  PDGFRα inhibition: >20%
[17]
  IC50: < 20 µM
